{
  "source": "patent US20080039377A1",
  "about": "“Composition Comprising a Jnk Inhibitor and Cyclosporin” (Applied Research Systems ARS Holding N.V., priority 2004, published 2008)",
  "tested_on": "model of global ischemia in gerbils",
  "assay": "Neuroprotective effect of a JNK inhibitor combined with cyclosporin in a model of global ischemia in gerbils",
  "assay_type": "in vivo",
  "details": "for neuroprotective effects (hippocampal damage assessed by histology): compared to vehicle and to JNK inhibitor alone",
  "procedure": "In Vivo Assay: Neuroprotective Effect of a JNK Inhibitor Combined with Cyclosporin in a Model of Global Ischemia in Gerbils\nThe following assay aims at determining the neuroprotective effect of the test compositions in a model of global ischemia in gerbils, in vivo.\nA total of 73 gerbils (60-80 g; obtained from Elevage Janvier, France) were provided. 4 groups, each consisting of 6-36 animals were formed: • Group 1 (n=36): The animals were administered (ip) a dose of 10 ml/kg of vehicle. • Group 2 (n=6): The animals were administered (ip) a dose of 15 mg/kg of cyclosporine. • Group 3 (n=8): The animals were administered (ip) a dose of 60 or 40 mg/kg of a JNK inhibitor according to formula (I) or (II). • Group 4 (n=7-8): The animals were administered (ip) a dose of the test composition containing 60 or 40 mg/kg of a JNK inhibitor according to formula (I) or (II) together with 15 mg/kg cyclosporine.\nSurgery. Gerbils weighting 60-80 g were anaesthetized with 4% isoflurane (Baxter, Volketswil, Switzerland) in medical air, administered via facemask. The anaesthesia was then maintained using 3% isoflurane until the end of surgery. Bilateral common carotid arteries were dissected and occluded with bulldog clamps for 5 min.\nHistology. Seven days after the onset of occlusion, the animals were killed by decapitation. The brains were frozen at −20° C. in 2-methylbutane and cut in 20 μm-thick sections in a cryocut (Microm HM 5000M, Walldorf, Germany). The sections were stained with cresyl violet acetate and the lesion in the hippocampus were scored within a 5-point scale: • Score 0: No loss of CA1 neurons; • Score 1: Weak damage of CA1 (CA1/Subiculum or CA1/CA3 border); • Score 2: Loss of CA1 neurons (<1/2); • Score 3: Loss of CA1 neurons (>1/2); and • Score 4: Total loss of CA1 neurons and expanding into other areas (CA3, Dentate gyrus, Cortex). The total score was obtained as the sum of scores in the right and left hemispheres.",
  "data": [
    {"smiles": "N#CC(c1ccnc(NCCc2cccnc2)n1)c1nc2ccccc2s1", "note": "(centres unmarked) [Compound A, 1,3-benzothiazol-2-yl(2-{[2-(3-pyridinyl)ethyl]amino}-4-pyrimidinyl)acetonitrile]", "values": [
      {"measurement": "neuroprotective effects (hippocampal damage assessed by histology)", "setting": "JNK inhibitor 60 mg/kg ip with Cyclosporin 15 mg/kg ip", "value": "increases the neuroprotective effects"},
      {"measurement": "Histological score Mean ± SEM", "setting": "Table I, Group 2: JNK inhibitor 0 mg/kg ip, Cyclosporine A 15 mg/kg ip, hippocampal lesion score (sum of both hemispheres, 0-4 each) 7 days after 5 min bilateral carotid occlusion", "value": "6.0 ± 0.0"},
      {"measurement": "Histological score Mean ± SEM", "setting": "Table I, Group 3: JNK inhibitor 60 mg/kg ip, Cyclosporine A 0 mg/kg, hippocampal lesion score 7 days after occlusion", "value": "3.6 ± 0.8"},
      {"measurement": "Histological score Mean ± SEM", "setting": "Table I, Group 4: JNK inhibitor 60 mg/kg ip together with Cyclosporine A 15 mg/kg ip, hippocampal lesion score 7 days after occlusion", "value": "1.3 ± 0.6"}
    ]},
    {"smiles": "CC#N.CCCCNC1CCN(S(=O)(=O)c2ccc(CNC(=O)c3ccc(Cl)cc3)s2)CC1", "note": "[Compound B, 4-chloro-N-[(5-{[4-(butylamino)piperidin-1-yl]sulfonyl}thien-2-yl)methyl]benzamide acetonitrile]", "values": [
      {"measurement": "neuroprotective effects (hippocampal damage assessed by histology)", "setting": "JNK inhibitor 40 mg/kg ip with Cyclosporin 15 mg/kg ip", "value": "increases the neuroprotective effects"},
      {"measurement": "Histological score Mean ± SEM", "setting": "Table II, Group 2: JNK inhibitor 0 mg/kg ip, Cyclosporine A 15 mg/kg ip, hippocampal lesion score 7 days after occlusion", "value": "6.0 ± 0.0"},
      {"measurement": "Histological score Mean ± SEM", "setting": "Table II, Group 3: JNK inhibitor 60 mg/kg ip, Cyclosporine A 0 mg/kg, hippocampal lesion score 7 days after occlusion", "value": "5.3 ± 0.5"},
      {"measurement": "Histological score Mean ± SEM", "setting": "Table II, Group 4: JNK inhibitor 60 mg/kg ip together with Cyclosporine A 15 mg/kg ip, hippocampal lesion score 7 days after occlusion", "value": "2.1 ± 0.6"}
    ]}
  ]
}
